Tests used:
p-S6K, p-S6, LC3 = assay: Cell signaling assay, western blot, HS746T; assay type: cell-based, human; settings: 0, 5, and 10 μM, FIG. 7e
Experimental: Cells treated with various concentration (0, 5, and 10 μM) of lomitapide were lysed with RIPA buffer containing a protease-inhibitor cocktail. The whole-cell lysate was incubated on ice for 30 minutes. After centrifugation at 4° C. and 13,300×g for 15 minutes, the supernatant was collected. For use as controls, cells were treated with 1 μM of torin, known as an mTOR inhibitor.
For western blot analysis, the supernatant was loaded onto 10% SDS-PAGE gel. The separated proteins were blotted onto a PVDF membrane. Then, the blots were incubated with antibodies at 4° C. for 12 hours as follows (Table 3).
Then, the blots were washed with TBST (a mixture of tris-buffered saline (TBS) and Tween 20), incubated with horseradish peroxidase-conjugated secondary antibody (Cell signaling) at 37° C. for 1 hour, and washed, followed by detecting enhanced chemiluminescence (ECL; Amersham).

HCT116 cells [1] = assay: HCT116 mouse xenograft model, tumor size; assay type: in vivo; settings: BALB/c nude mice; 50 mg/kg or 25 or 50 mg/kg intraperitoneally, or 10 mg/kg intratumorally; vs DMSO control; FIG. 14
Experimental: Lomitapide was examined for anticancer effect in tumor-implanted mice by monitoring tumor sizes in the mouse xenograft model after treatment with lomitapide.
Animal experiments were conducted according to the guideline approved by the institutional animal care and use committee in the Korean Advanced Institute of Science and Technology. HCT116 cells (4×10^6) were injected subcutaneously into male BALB/c nude mice at 8-12 weeks of age. After an average tumor volume reached 50 mm^3, the mice were randomly divided into two groups (5 mice/group). The mice were measured for weight and tumor size every two days. Tumor sizes were measured using calipers and determined according to formula 0.5×(width)^2×(Length). P-values were determined using Student's T test. Lomitapide was intraperitoneally injected at a dose of 50 mg/kg into the mice at days 1, 2, 3, 7, 8, 9, 13, 14, 15, and 16 after start of the experiment. For a control, DMSO was injected intraperitoneally into the mice (FIG. 14a).
An additional animal experiment was conducted. Lomitapide was intraperitoneally injected at a dose of 25 or 50 mg/kg into mice five times every two days after start of the experiment. Intraperitoneal injection of DMSO into mice was conducted for a control (FIG. 14b). […]

HCT116 cells [2] = assay: Cell colony forming assay (crystal violet); assay type: cell-based, human; settings: 5 μM, 48 hours, vs wells treated without lomitapide
Experimental: To examine relationship between lomitapide and cancer cell colony forming rate in HCT116 cells, cancer cell colony forming rates were measured after addition of limitapide to HCT116 cells cultured in wells.
HCT116 cells were seeded at a density of 10^5 cells/well into 12-well plates and incubated 37° C. for 24 hours. Subsequently, the cells were incubated with 0 and 5 μM lomitapide at 37° C. for 48 hours in a 5% CO2 atmosphere. Then, 500 μL of crystal violet was added to each well and incubated at room temperature for 10 minutes to stain the cells. From the staining data, the cells were analyzed for growth rate.

B16F10 melanoma = assay: Mouse homograft tumor model, B16F10 melanoma; assay type: in vivo; settings: B16F10 in C57B6/N mice
Experimental: For mouse homograft tumor model, experiments were conducted using female C57B6/N mice (wild-type, 6 weeks old) with MC38 colorectal cancer and B16F10 melanoma cell lines. MC38 colorectal cancer and B16F10 melanoma cell lines were each subcutaneously injected at a dose of 2×10^5 cells. Lomitapide used in the two models was formulated with 45% saline, 40% PEG300, 5% Tween-80, and 10% DMSO.
For B16F10 skin melanoma, from 10 days after the tumor injection, lomitapide was intraperitoneally injected at a dose of 40 mg/kg three times at days 3, 5, and 7, and anti-PD-1 mAb (clone RMP1-14, BioXCell, West Lebanon, NH, USA) or rat IgG2a iso-type control (clone 2A3, BioXCell, BE0089) was administered at a dose of 20 mg/kg at days 1, 3, 5, and 7. The mice were euthanized immediately when signs of pain were observed, the body weight was reduced by 20% compared to the normal weight, or the tumor volume exceeded 1,000 mm^3 (FIGS. 19a and 19b).

[3] = system: colorectal cancer patient-derived organoids; assay: Viability assay for organoids derived from colorectal cancer patients (imaging based); assay type: cell-based, human; settings: two colorectal cancer patient-derived organoids; 72 hours; FIG. 20
Experimental: Two-type colorectal cancer patient-derived organoids (organoid from males at 01-46 of age and organoid from females at 02-74 of age) were treated with lomitapide and assayed for viability as follows.
Organoids derived from colorectal cancer patients were cultured for 5-7 days on 48-well plates (SPL, cat 32048).
The organoids were separated from the plates by pipetting with 200 μL of Dulbecco's phosphate-buffered saline (DPBS; Welgene LB001-02) and transferred to new tubes.
For staining, the separated organoids and Hoechst (Thermo, #H-1399) were added at a ratio of 1:2,000 to a culture medium and incubated for 30 minutes at 37° C. in a 5% CO2 incubator. […]
Following the dispense, the number, state, and area of organoids were measured through DAPI signals with the aid of the high-contents imaging-based screening device Cytation 5 (Biotek).
Subsequently, organoid areas were monitored three times every 24 hours for 72 hours without changing the culture medium.
The effectiveness of the drug was calculated by applying the raw data derived from Cytation 5 to the following formulas. […]
Each organoid stained with Hoechst was measured for area (μm^2) by using Cytation 5, and areas of the all organoids in each well were summed.
The difference between the organoid area after 72 hours of drug treatment and the organoid area at the first 0 hour was calculated. […]

O=C(NC1CCN(CCCCC2(C(=O)NCC(F)(F)F)c3ccccc3-c3ccccc32)CC1)c1ccccc1-c1ccc(C(F)(F)F)cc1 [lomitapide, N-(2,2,2-trifluoroethyl)-9-[4-[4-[[[4′-(trifluoromethyl)[1,1′-biphenyl]2-yl]carbonyl]amino]-1-piperidinyl]butyl]-9H-fluoren-9-carboxamide]
conversion from LC3I into LC3II (p-S6K, p-S6, LC3): increased induction of conversion from LC3I into LC3II | phosphorylation levels of target proteins (p-S6K, p-S6) (p-S6K, p-S6, LC3; dose-dependent): remarkably decreased phosphorylation levels | tumor growth (tumor size) (HCT116 cells [1]): grow slowly, compared to the control | growth rate (colony forming) (HCT116 cells [2]): remarkably lower in growth rate | tumor growth compared to the groups treated with the anti-PD-1 mAb (B16F10 melanoma; lomitapide 40 mg/kg i.p., anti-PD-1 mAb 20 mg/kg): greatly suppressed and reduced | tumor growth compared to the control (B16F10 melanoma; lomitapide 40 mg/kg intraperitoneally three times): significantly suppressed and reduced tumor growth | organoid viability [3]: decreased in viability with the increase of the dose

From patent US12582638B2, “Pharmaceutical composition for treating cancer, containing mTOR-signaling inhibitor as active ingredient” (KOREA ADVANCED INSTITUTE OF SCIENCE AND TECHNOLOGY, priority 2020, dated 2026)
